# US5244905A, “N-substituted cycloalkyl and polycycloalkyl polyhydro-β-carboline-phenylalanine- and phenethylamine derivatives” (Warner-Lambert Company, priority 1991, dated 1993)
# Legend:
# CCK-B receptor = target: T1, CCK-B receptor (Mus musculus, UniProt P56481); assay: Binding to the CCK-B receptor (Table III); set-up: species or system mouse (male CFLP)
# T1 construct: from tissue
# T1 sequence (P56481 1-453): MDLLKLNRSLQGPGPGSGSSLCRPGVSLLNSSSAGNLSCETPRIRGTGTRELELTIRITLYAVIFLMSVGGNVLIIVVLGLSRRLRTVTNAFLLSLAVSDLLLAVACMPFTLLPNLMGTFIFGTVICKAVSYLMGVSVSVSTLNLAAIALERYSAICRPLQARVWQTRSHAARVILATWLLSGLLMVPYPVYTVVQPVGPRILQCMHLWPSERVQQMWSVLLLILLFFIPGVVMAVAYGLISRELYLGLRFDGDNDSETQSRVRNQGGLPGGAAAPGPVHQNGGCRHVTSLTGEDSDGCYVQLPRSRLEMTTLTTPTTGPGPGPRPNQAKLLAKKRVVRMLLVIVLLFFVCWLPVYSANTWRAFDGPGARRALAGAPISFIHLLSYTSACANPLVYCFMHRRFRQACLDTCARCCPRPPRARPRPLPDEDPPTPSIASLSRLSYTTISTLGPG
# Method: (§1) The biological activity of compounds of the present invention was evaluated employing an initial screening test which rapidly and accurately measured the binding of the tested compound to known CCK receptor sites. […] (See Hays et al, Neuropeptides 1:53-62, 1980; and Satuer et al, Science, 208:1155-1156, 1980.
# (§2) In this screening test, the cerebral cortices taken from male CFLP mice weighing between 30-40 g were dissected on ice, weighed, and homogenized in 10 volumes of 50 mM Tris-HCl buffer (pH 7.4 at 0°-4° C.). The resulting suspension was centrifuged, the supernate was discarded, and the pellet was washed by resuspension in Tris-HCl buffer followed by recentrifugation. The final pellet was resuspended in 20 volumes of […] Hepes buffer (pH 7.2 at 23° C.) containing 130 mM NaCl, […] KCl, […] MgCl2, […] EDTA, 5 mg/mL bovine albumin, and bacitracin (0.25 mg/mL).
# (§3) In saturation studies, cerebral cortical membranes were incubated at 23° C. for 120 minutes in a final volume of 500 μliter of Hepes incubation buffer (pH 7.2) together with 0.2-20 nM tritiated-pentagastrin (Amersham International, England).
# (§4) In the displacement experiments, membranes were incubated with a single concentration (2 nM) of ligand, together with increasing concentrations ([…]) of competitive test compound. In each case, the nonspecific binding was defined as that persisting in the presence of the unlabeled octapeptide CCK26-33 (10^-6 M).
# (§5) Following incubation, radioactivity bound to membranes was separated from that free in solution by rapid filtration through Whatman GF/B filters and washed three times with 4 mL of ice cold Tris-HCl buffer. Filters from samples incubated with tritiated-pentagastrin were placed in polyethylene vials with 4 mL of scintillation cocktail, and the radioactivity was estimated by liquid scintillation spectrometry (efficiency 47% to 52%).
# (§6) The specific binding to CCK receptor sites was defined as the total bound tritiated-pentagastrin minus the amount of tritiated-pentagastrin bound in the presence of 10^-6 octapeptide, CCK26-33.
# (§7) Saturation curves for specific tritiated-pentagastrin binding to mouse cortical membranes were analyzed by the methods of Scatchard (Ann. New York Acad. Sci. 51:660 672, 1949, and Hill (J. Physiol. 40:IV-VIII, 1910, to provide estimates for the maximum number of binding sites (Bmax) and the equilibrium dissociation constant ([…]).
# (§8) In displacement experiments, inhibition curves were analyzed by either logit-log plots or the iterative curve fitting computer program ALLFIT (DeLean, Munson and Redbard, 1978) to provide estimates of the IC50 and nH (apparent Hill coefficient) values). (IC50 values were defined as the concentration of test compound required to produce 50% inhibition of specific binding.)
# (§9) The inhibition constant (Ki) of the test compound was then calculated according to the Cheng-Prusoff equation: [formula] where [L] is the concentration of radiolabel and Ka is the equilibrium dissociation constant.
# Central CCK Receptors = target: T2, Central CCK Receptors (Mus musculus, UniProt P56481); assay: Binding to central CCK receptors ([3H]-pentagastrin displacement, mouse cerebral cortical membranes); set-up: species or system mouse (male CFLP); settings: tritiated pentagastrin 2 nM, number of assays (n) = 2
# T2 construct: from tissue; host or cells: cerebral cortex of male CFLP mice (washed membranes)
# T2 sequence (P56481 1-453): T1 sequence (P56481 1-453)
# Method: as §1, §2, §3, §4, §5, §6, §7, §8, §9
# The Ki values for several representative compounds of the present invention are present in Table II.
# [1] = test system: aspirin-induced gastric damage; assay: Aspirin-induced gastric damage; type: in vivo, rat; settings: 15 mg/kg PO, p <0.001 compared with controls
# Method: Aspirin-induced gastric damage is assessed in groups of 10 rats each. All animals are fasted for 24 hours before and throughout the experiment. Drug or vehicle is given 10 minutes before an oral dose of 1 mL of a 45-mg/mL suspension of aspirin in 0.5% carboxymethylcellulose (CMC). The animals are sacrificed 5 hours after aspirin administration and the stomachs removed and opened for examination. |Gastric damage is scored as follows: |1 Small hemorrhage |2 Large hemorrhage |3 Small ulcer |4 Large ulcer |5 Perforated ulcer
Ki (CCK-B receptor),Ki (Central CCK Receptors),Ki CCK-B (CCK-B receptor),SMILES,inhibition of ulcer formation ([1]; 10 minutes before aspirin),"ulcer score ([1]; ±SD, saline control 12.1±6.85)"
990 nM,990 nM,,O=C(NCCc1ccccc1)C1Cc2c([nH]c3ccccc23)CN1C(=O)OC1C2CC3CC(C2)CC1C3 (racemic) [Example 17],,
710 nM,710 nM,,CC1(C(=O)NCC(O)c2ccccc2)Cc2c([nH]c3ccccc23)CN1C(=O)OC1C2CC3CC(C2)CC1C3 (stereo not drawn) [Example 12],,
,,iA,C[C@@]1(C(=O)NCCc2ccccc2)Cc2c([nH]c3ccccc23)CN1C(=O)OC1C2CC3CC(C2)CC1C3 (stereo partly drawn) [Example 3],,
6000 nM,6000 nM,,"CC(C)(C)OC(=O)N1Cc2[nH]c3ccccc3c2CC1C(=O)NC(Cc1ccccc1)C(=O)O (stereo not drawn) [Example 18, 3-[[1(I-Carboxy-2-phenethyl)amino]carbonyl]-1,3,4,9-tetrahydro-2H-pyrido[3,4-b]indole-2-carboxylic acid, 1,1-dimethylethyl ester]",,
600 nM,600 nM,,C[C@]1(C(=O)NCCc2ccccc2)Cc2c([nH]c3ccccc23)CN1C(=O)OC1C2CC3CC(C2)CC1C3 (stereo partly drawn) [Example 2],,
730 nM,730 nM,,C[C@]1(C(=O)N[C@H](CO)Cc2ccccc2)Cc2c([nH]c3ccccc23)CN1C(=O)OC1C2CC3CC(C2)CC1C3 (stereo partly drawn) [Example 5],,
860 nM,860 nM,,"CC1(C(=O)N[C@@H](CO)[C@@H](O)c2ccccc2)Cc2c([nH]c3ccccc23)CN1C(=O)OC1C2CC3CC(C2)CC1C3 (stereo partly drawn) [Example 7, 1,3,4,9-Tetrahydro-3-[[[1-(hydroxymethyl)-2-hydroxy-2-phenylethyl]amino]carbonyl]-3-methyl-2H-pyrido[3,4-b]-indole-2-carboxylic acid,tricyclo[3.3.1.1^3,7]dec-2-yl ester]",,
305 nM,305 nM,,"CC1(C(=O)N[C@H](CNC(=O)CCC(=O)O)Cc2ccccc2)Cc2c([nH]c3ccccc23)CN1C(=O)OC1C2CC3CC(C2)CC1C3 (mixture of isomers) [Example 16, 3-[[1-(3-Carboxy-1-oxopropyl)amino]methyl]-1-phenethyl]amino]carbonyl]-1,3,4,9-tetrahydro-3-methyl2H-pyrido[3,4-b]indole-2-carboxylic acid, [tricyclo-[3.3.1.1^3,7]dec-2 yl ester (mixture of diastereomers)]",,
1500 nM,1500 nM,,"C[C@@]1(C(=O)N[C@H](CO)Cc2ccccc2)Cc2c([nH]c3ccccc23)CN1C(=O)OC1C2CC3CC(C2)CC1C3 (stereo partly drawn) [Example 6, (S)-1,3,4,9-Tetrahydro-3-[[[1-(hydroxymethyl)-2-phenylethyl]amino]carbonyl]-3-methyl-2H-pyrido[3,4-b]indole-2-carboxylic acid,tricyclo[3.3.1.1^3,7]dec-2-yl ester ester]",,
,,iA,"CC1(C(=O)NCCc2ccccc2)Cc2c([nH]c3ccccc23)CN1S(=O)(=O)NC1C2CC3CC(C2)CC1C3 (racemic) [Example 19, (+/-)-1,3,4,9-Tetrahydro-3-methyl-N-(2-phenylethyl)-2-(tricyclo[(3.3.1.1^3,7]dec-2-ylamino]sulfonyl]1H-pyrido-[3,4-b]indole-3-carboxamide]",,
3000 nM,3000 nM,,"CC1(C(=O)NCC(N)c2ccccc2)Cc2c([nH]c3ccccc23)CN1C(=O)OC1C2CC3CC(C2)CC1C3 (mixture of isomers) [Example 8, 3-[[(2-Amino-2-phenylethyl)amino]carbonyl]-1,3,4,9-tetrahydro-3-methyl]-2H-pyrido[3,4-b]indole-2-carboxylic acid, tricyclo[3.3.1.1^3,7]dec-2-yl ester, (mixtures of diastereomers)]",,
500 nM,500 nM,,"CC1(C(=O)N[C@H](CO)Cc2ccccc2)Cc2c([nH]c3ccccc23)CN1C(=O)OC1C2CC3CC(C2)CC1C3 (mixture of isomers) [Example 4, 1,3,4,9-Tetrahydro-3-[[[1-(hydroxymethyl)-2-phenylethyl]amino]carbonyl]-3-methyl-2H-pyrido[3,4-b]indole-2-carboxylic acid,tricyclo[3.3.1.1^3,7]dec-2-yl ester (mixture of diastereomers)]",,
1000 nM,1000 nM,,"CC1(C(=O)NCC(NC(=O)CC(=O)O)c2ccccc2)Cc2c([nH]c3ccccc23)CN1C(=O)OC1C2CC3CC(C2)CC1C3 (mixture of isomers) [Example 14, 3-[[[2-[(3-Carboxyacetyl)amino]-2-phenethyl]-amino]-carbonyl]-1,3,4,9-tetrahydro-3-methyl-2H-pyrido[3,4-b]indole-2-carboxylic acid, [tricyclo-[3.3.1.1^3,7]dec-2-yl ester (mixture of diastereomers)]",,
1000 nM,1000 nM,,CC1(C(=O)NCC(OC(=O)CCC(=O)O)c2ccccc2)Cc2c([nH]c3ccccc23)CN1C(=O)OC1C2CC3CC(C2)CC1C3 (stereo not drawn) [Example 13],,
500 nM,500 nM,,"CC1(C(=O)NCC(NC(=O)CCC(=O)O)c2ccccc2)Cc2c([nH]c3ccccc23)CN1C(=O)OC1C2CC3CC(C2)CC1C3 (stereo not drawn) [Example 9, 3-[[[2-(3-Carboxy-1-oxopropyl)-amino]-2-phenylethyl]amino]carbonyl]-1,3,4,9-tetrahydro-3-methyl-2H-pyrido[3,4-b]indole-2-carboxylic acid, tricyclo[3.3.1.1^3,7]dec-2-yl ester, [R-(R*,R*)] and [R-(R*,S*)]-]",,
3000 nM,3000 nM,,"CC1(C(=O)NCC(NC(=O)CCC(=O)OCc2ccccc2)c2ccccc2)Cc2c([nH]c3ccccc23)CN1C(=O)OC1C2CC3CC(C2)CC1C3 (mixture of isomers) [Example 11, 3-[3-[3-[2-[2-[1,4-Dioxo-4-(phenylmethoxy)butyl]amino]-2-phenylethyl]amino]carbonyl]-1,3,4,9-tetrahydro-3-methyl]-2H-pyrido[3,4-b]indole-2-carboxylic acid, tricyclo[3.3.1.1^3.7]dec-2-yl ester (mixture of diastereomers)]",,
150 nM,150 nM,,"CC1(C(=O)NCCc2ccccc2)Cc2c([nH]c3ccccc23)CN1C(=O)OC1C2CC3CC(C2)CC1C3 (racemic) [Example 1, (±)1,3,4,9-Tetrahydro-3-methyl-3-[[2-phenylethyl)amino]carbonyl]-2H-pyrido[3,4-b]indole-2-carboxylic acid,tricyclo[3.3.1.1^3,7]dec-2-yl ester]",,
710 nM,710 nM,,"CC1(C(=O)NCC(NC(=O)/C=C\C(=O)O)c2ccccc2)Cc2c([nH]c3ccccc23)CN1C(=O)OC1C2CC3CC(C2)CC1C3 (mixture of isomers) [Example 15, 3-[[[2-[(3-Carboxy-1-oxo-2-propenyl)amino]-b 2-phenethyl]amino]carbonyl]1,3,4,9-tetrahydro-3-methyl-2H-pyrido[3,4-b]indole-2-carboxylic acid, [tricyclo-[3.3.1.1^3.7]dec-2-yl ester (mixture of diastereomers)]",,
,,,CNC(=C[N+](=O)[O-])NCCSCc1ccc(CN(C)C)o1 [ranitidine],74%,3.2±2.35
